# US6583333B1, “Lymphoma-susceptible transgenic mice and methods for studying drug sensitivity of lymphomas” (Cold Spring Harbor Laboratory, priority 1998, dated 2003)
# Legend:
# [1] = tested on: transplanted Eμ-myc lymphoma cells in C57BL/6 mice; test: Tumor transplantation into syngeneic mice, response to treatment by palpation; type: in vivo, mouse; conditions: 10^6 cells by tail vein into C57BL/6, 10 mg/kg, compared with primary tumors, FIG. 5
# From the text: Upon discovery of tumors in a Eμ-myc transgenic mouse, lymphoma cells were harvested, and 10^6 cells were immediately transplanted into multiple C57BL/6 mice (Taconic Laboratories) by tail vein injection. Tumors were allowed to form (usually in about two weeks). Treatment with adriamycin was given as in Example 5. […] The results (as assessed by palpation for tumors) plotted in FIG. 5 are from 22 mice with primary tumors, and 10 mice with transplanted tumors.
# [2] = tested on: primary myc-induced lymphomas in Eμ-myc transgenic mice; test: Response to therapy of primary myc-induced lymphomas (remission/relapse by palpation and blood smears); type: in vivo, mouse; conditions: single treatment 10 mg/kg intraperitoneal, FIG. 4
# Method: Eμ-myc transgenic mice were treated with 10 mg/kg body weight adriamycin (maximum tolerated dose) by intraperitoneal injection using adriamycin freshly resuspended in water to a final concentration of 1 mg/ml. Treated mice were monitored for remission and for relapse by palpation and by blood smears to obtain white blood cell counts.
# Palpation is performed by gently feeling the mouse for bumps under the skin, which are enlarged lymph nodes.
# Blood smears are done by collecting blood from the tail artery, and examining a dried droplet of blood which has been smeared on a glass microscope slide to be one cell layer thick at the edge. The blood smear is stained after drying, using LEUKOSTAT™ stain (Fisher Diagnostics cat. # CS43A-C). The blood smear can be mounted with Permount™ histological mounting medium (Fisher Scientific). Slides are viewed under 40X or oil emersion. Blood from mice affected by lymphoma are always compared with blood from mice from a normal mouse drawn at the same time.
# The numbers of mice used to generate the data in FIG. 4 were 22 (first treatment), 14 (second treatment) and 5 (third treatment).
# [3] = tested on: Eμ-myc/p53^−/− lymphoma; test: White blood cell counts of lymphoma-associated leukemia after treatment; type: in vivo; conditions: Eμ-myc/p53^−/− mouse, 10 mg/kg, 0-24 hours after treatment, FIG. 6, one mouse
# Method: Eμ-myc/p53^+ mice (C57BL/6) and Eμ-myc/p53^−/− (C57BL/6 x 129; p53^−/LOH in FIGS. 6 and 7) with leukemia associated with primary lymphoma, were treated with either adriamycin at 10 mg/kg of body weight or with 6 Gy of whole body gamma-irradiation. Blood samples were taken and white blood cells were counted in a hemocytometer at 0, 4, 8, 12 and 24 hours after treatment. […] The data plotted in FIGS. 6 and 7 are from one treated mouse of each genotype.
# [4] = tested on: secondary tumors arising from transplanted L885 cells; test: Drug sensitivity of transplanted tumor cell line L885, by palpation; type: in vivo, mouse; conditions: 10 mg/kg, 9 secondary tumors vs 22 primary tumors, FIG. 11
# Method: (§1) Eμ-myc lymphomas were cultured using feeder layers (see Example 7). Several of these cell lines were transplanted into syngeneic C57BL/6 recipients by injection of 10^6 cells into the tail vein. Tumor-bearing animals were assessed for response to 10 mg/kg adriamycin therapy, by palpation for tumors.
# [5] = tested on: Eμ-myc lymphomas from p53^+/− mice; test: Effect of p53 defect on therapy in Eμ-myc/p53^+/− mice; type: in vivo, mouse; conditions: 10 Eμ-myc/p53^+/− mice, 10 mg/kg, FIG. 14
# Method: Since most Eμ-myc lymphomas from p53^+/− mice lose the wild-type p53 allele, it was possible to study the response of essentially p53-deficient tumors in mice that were otherwise hemizygous for p53 and not prone to thymic lymphoma (see strategy in FIG. 13). […] The response of Eμ-myc lymphomas with p53 defects to 10 mg/kg adriamycin therapy resembled that of Eμ-myc/p53^+/+ lymphomas following their second relapse (See FIG. 4).
# [6] = tested on: transplanted L1537 cells (homozygous for p53^−); test: Drug sensitivity of transplanted tumor cell line L1537; type: in vivo, mouse; conditions: two C57BL/6 mice, 10 mg/kg
# Method: as §1
# Tumor cell line L1537 was derived from an Eμ-myc/p53^+/− lymphoma and was tested as homozygous for p53^−. Tumor cells were transplanted, by the method described above, into two C57BL/6 mice.
# [7] = tested on: Eμ-myc lymphoma cell line L1025; test: In vitro sensitivity of lymphoma cell lines, viability by trypan blue exclusion; type: cell-based, mouse; conditions: line L1025 from a resistant tumor, 24-hour treatment, FIG. 8
# Method: Several lymphoma lines have been isolated from Eμ-myc mice in which the response to adriamycin of the original tumor was known. Eμ-myc lymphoma cell lines cultured in vitro were tested for their sensitivity to adriamycin. Lymphocytes were counted. The cells were spun down and resuspended in pre-conditioned B cell media (media that has been on feeder cells for 24 hours) at a concentration of 2×10^6 cells/ml. 10^6 cells were seeded per well of a tissue culture plate, in 0.5 ml. Adriamycin was suspended in pre-conditioned B cell media at twice the final concentration. Final concentrations of adriamycin were 0.25, 0.05, 0.075, 0.1, 0.5 and 1.0 μg/ml. 0.5 of medium was added to each well, to a final volume of 1 ml. Cells were incubated for 24 hours at 37° C. Cells were transferred from the wells to Eppendorf tubes on ice, and centrifuged at 2500 rpm for 5 minutes at 4° C. The medium was poured off the cell pellets, leaving about 200 μl of medium in each tube. One drop of trypan blue dye was added to each tube, and a total of 200 cells per sample were counted under a microscope. Live cells exclude trypan blue and appear white; dead cells take up trypan blue and appear blue.
# L877 has been tested as Eμ-myc/p53^−/−; the other cell lines are derived from Eμ-myc/p53^+ mice and are presumably p53^+/+.
# [8] = tested on: L700 cell line derived from an Eμ-myc (p53^+) tumor; test: Detection of caspase activation (biotin-YVAD-amk labelling, blot); type: cell-based, mouse; conditions: 0.1 μg/ml, 0, 3, 6 or 9 hours, FIG. 10
# Method: Procedures were as published in Faleiro, L., et al., EMBO J. 16:2271-2281, 1997). Isolated L700 cells growing in culture dishes were treated with 0.1 μg/ml adriamycin. After 0, 3, 6 or 9 hours, cell lysates were made in the presence of 10 μM biotin-YVAD-amk to label caspases, and the protein concentrations were determined. Protein samples were run on a 15% acrylamide-0.1% SDS gel. Proteins were transferred from the gel to Immobilon P membrane (Millipore). Membranes were washed in methanol and air dried. Dried, baked membranes were incubated in biotinylated horseradish peroxidase at 25 ng/ml. Labeled proteins were visualized with ECL reagent (Amersham).
smiles,measurement,setting,value
COc1cccc2c1C(=O)c1c(O)c3c(c(O)c1C2=O)C[C@@](O)(C(=O)CO)C[C@@H]3O[C@H]1C[C@H](N)[C@H](O)[C@H](C)O1 [adriamycin],response of transplanted (secondary) tumors to treatment,[1],A higher percentage of these secondary tumors failed to respond to treatment
same,response to therapy (time to relapse by palpation),[2],the vast majority of the mice respond to therapy
same,sensitivity of lymphoma-associated leukemia (white blood cell counts),[3],insensitive
same,response of transplanted L885 tumors to therapy,[4],"virtually indistinguishable from that seen in the primary, non-transplanted lymphomas"
same,response to therapy (percentage of tumor-free mice),[5],almost completely refractory to therapy
same,response of transplanted L1537 tumors to therapy,[6],Both mice failed to respond
same,sensitivity in cell culture (percent viable cells),[7],sensitive in cell culture
same,caspase activation,[8],caspase activation following drug treatment
